US20240034765A1, “SCG2 NEUROPEPTIDES AND USES THEREOF” (PRESIDENT AND FELLOWS OF HARVARD COLLEGE, priority 2020, published 2024)

Assays:
specific cell types = details: cited from earlier work
[1] = system: hM3DGq-expressing neurons; test: Cell-attached recording of CA1 PC in slice after bath application of CNO; type: cell-based, mice; details: cell-attached mode
CA1 neurons = test: AAV-based activity reporter mKate2 labelling of recently activated CA1 neurons; type: in vivo, mice; details: 24 h post-KA injection
Description: First, tests were performed to determine whether either of these forms of perisomatic inhibition (by PV-expressing INs and CCK-expressing INs) are differentially regulated onto Fos-expressing neurons compared to neighboring non-Fos-expressing neurons. Mice were exposed to a series of novel environments, which robustly activated Fos in a sparse subset of CA1 PCs (see e.g., FIG. 1A, FIG. 7A-FIG. 7D). To label these Fos-expressing neurons, an adeno-associated virus (AAV)-based reporter was used that expresses the fluorescent protein mKate2 selectively in recently activated neurons (see e.g., FIG. 1B); see e.g., Fenno et al. Nat Methods 11, 763-772, (2014), the content of which is incorporated herein by reference in its entirety. Using this reporter, a significant increase was detected in the number of recently activated neurons (mKate2^+) in mice exposed to 2-3 days (see e.g., FIG. 1D) of novel environments (NE) compared to control mice housed under standard (Strd) conditions (see e.g., FIG. 1C). This 2-3d timepoint was therefore appropriate for assessing the long-lasting effects of Fos and its late-response target gene(s), which were usually activated within 1-12 hours (h) of stimulus onset (see e.g., FIG. 1D).
Intraperitoneal (i.p.) injections.
Histology. Mice were anaesthetized with 10 mg/mL ketamine and 1 mg/mL xylazine in phosphate buffered saline (PBS) via i.p. injection. […]

CA1 = test: Cell health in CA1 24 h post-KA (Hoechst, NeuN, cleaved-caspase 3 immunostaining); type: in vivo, mice; details: within 24 h of KA injection
Description: FIG. 8A-8Q is a series of schematics, images, and graphs showing IN-to-CA1 PC paired recordings and cell health parameters in 24 h post-KA condition. FIG. 8A and FIG. 8G are schematics of the genetic strategy to label PV-INs (PV^Cre; Ai14; FIG. 8A) or CCK-INs (D1×5/6^Flp; CCK^Cre; Ai65; FIG. 8G). FIG. 8B and FIG. 8H are representative images of tdTomato fluorescence in the CA1 field. Scale: 100 μm. N=2 mice per line. FIG. 8C and FIG. 8I are bar graphs showing quantification of the fraction of (FIG. 8C) PV- or (FIG. 8I) CCK-to-CA1 PC synaptically-connected pairs from the overall number of pairs recorded in both vehicle (Veh.) and 24 h post-KA mice. In FIG. 8C, Veh., n=13/22; KA, n=19/30; in FIG. 8I, Veh., n=16/40; KA, […], where n=number of connections/total pairs. FIG. 8D and FIG. 8J are dot plots showing quantification of the maximum firing rate of (FIG. 8D) PV- or (FIG. 8J) CCK-INs from connected pairs. […] FIG. 8E and FIG. 8K are dot plots showing quantification of spike adaptation ratio of (FIG. 8E) PV- or (FIG. 8J) CCK-INs from connected pairs as in FIG. 8D and FIG. 8J, respectively. FIG. 8F and FIG. 8L are line graphs showing quantification of paired pulse ratios (PPRs) of uIPSCs at the indicated interstimulus intervals (ISI) for (FIG. 8F) PV- (Veh., n=13/6; KA, n=19/7) or (FIG. 8L) CCK- (Veh., n=16/9; KA, n=16/4) to-CA1 PC connected pairs, where n=number of pairs/number of mice. […]

**Q.** With “secretoneurin (TNEIVEEQYTPQSLATLESVFQELGKLTGPNNQ; listed as Homo sapiens) [33 aa]” as the compound, how does the “chemotaxic effects on specific cell types” value (specific cell types) read?
**A.** chemotaxic effects

**Q.** For C[N+]1([O-])CCN(C2=Nc3cc(Cl)ccc3Nc3ccccc32)CC1 [CNO, clozapine N-oxide], which “firing rate of hM3DGq-expressing CA1 PC” value [1] is on record?
**A.** firing rate increases

**Q.** For C=C(C)[C@H]1CN[C@H](C(=O)O)[C@H]1CC(=O)O [kainic acid], which “average percentage of mKate2+ neurons over total number of DAPI cells” value (CA1 neurons) is on record?
**A.** 96%

**Q.** What about the “cell death (Hoechst+, NeuN+, cleaved-caspase+ cells per 40-μm section, all layers of CA1)” value (CA1) of the same compound?
**A.** did not induce cell death
